From patent US7919076B2, “PH-sensitive polymeric conjugates of an anthracycline cancerostatic drug for targeted therapy” (Zentiva, k.s., priority 2001, dated 2011)

Tested on: T-cellular lymphoma (EL4)
Assay: in vivo anti-tumor activity, s.c. T-cellular lymphoma EL4 in C57BL/10 mice
Set-up: species or system mouse
Method: Mice of inbred strain C57BL/10 were subcutaneously transplanted with T-cellular lymphoma (EL4). The tumor cells were injected in the lower half of the back of experimental animals in the amount of 1×10^5 cells/mouse. The cell transplantation day was marked day 0. Polymeric conjugates with hydrolytically released doxorubicin were then administered intraperitoneally either on day 1, 3, 5, 7 and 9 (protective regimen), on day 10, 12, 14, 16 and 18 or on day 12, 14, 16, 18 and 20 (therapeutic regimen). The daily dose of doxorubicin was 50 μg/mouse.

Q: Which “anti-tumor effect (tumor growth, survival)” value (EL4, i.p., doxorubicin 50 μg/mouse daily dose) does the source give for `COc1cccc2c1C(=O)c1c(O)c3c(c(O)c1C2=O)C[C@@](O)(C(=O)CO)C[C@@H]3O[C@H]1C[C@H](N)[C@H](O)[C@H](C)O1` [doxorubicin] here?
A: very limited effect

Q: What about the “maximum survival period of the experimental animals” value (EL4, control group 35 days) of the same compound?
A: 40 days
